Values joined by “and” are separate entries in the source; they are usually repeats but may differ in a detail not shown here. Identical values can stand only once.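 Results reflect a 48-hour exposure of cells in 96-well plates to compound at five concentrations. The concentration for 50% growth inhibition is given as GI50. Definition used: TGI = concentration required for complete inhibition of growth.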
Experiments:
Assay in all cases: NCI tumour cell line growth inhibition, 48 h; in the data active = GI50 below about 0.43 µM; inactive = the rest
786-0 renal = system: 786-0 renal
A498 renal = system: A498 renal
A549 NSCLC = system: A549 NSCLC
ACHN renal = system: ACHN renal
BT-549 breast = system: BT-549 breast
CAKI-1 renal = system: CAKI-1 renal
CCRF-CEM leukemia = system: CCRF-CEM leukemia
COLO 205 colon = system: COLO 205 colon
DU-145 prostate = system: DU-145 prostate
EKVX NSCLC = system: EKVX NSCLC
HCC-2998 colon = system: HCC-2998 colon
HCT-116 colon = system: HCT-116 colon
HCT-15 colon = system: HCT-15 colon
HL-60(TB) leukemia = system: HL-60(TB) leukemia
HOP-62 NSCLC = system: HOP-62 NSCLC
HOP-92 NSCLC = system: HOP-92 NSCLC
HS 578T breast = system: HS 578T breast
HT29 colon = system: HT29 colon
IGROV1 ovarian = system: IGROV1 ovarian
K-562 leukemia = system: K-562 leukemia
KM12 colon = system: KM12 colon
LOX IMVI melanoma = system: LOX IMVI melanoma
M14 melanoma = system: M14 melanoma
MALME-3M melanoma = system: MALME-3M melanoma
MCF7 breast = system: MCF7 breast
MDA-MB-231 breast = system: MDA-MB-231 breast
MDA-MB-435 = system: MDA-MB-435
MDA-N = system: MDA-N
MOLT-4 leukemia = system: MOLT-4 leukemia
NCI-H226 lung = system: NCI-H226 lung
NCI-H23 lung = system: NCI-H23 lung
NCI-H460 lung = system: NCI-H460 lung
NCI-H522 lung = system: NCI-H522 lung
NCI/ADR-RES ovarian = system: NCI/ADR-RES ovarian
OVCAR-3 ovarian = system: OVCAR-3 ovarian
OVCAR-4 ovarian = system: OVCAR-4 ovarian
OVCAR-5 ovarian = system: OVCAR-5 ovarian
OVCAR-8 ovarian = system: OVCAR-8 ovarian
PC-3 prostate = system: PC-3 prostate
RPMI-8226 leukemia = system: RPMI-8226 leukemia
RXF 393 renal = system: RXF 393 renal
SF-268 CNS = system: SF-268 CNS
SF-295 CNS = system: SF-295 CNS
SF-539 CNS = system: SF-539 CNS
SK-MEL-2 melanoma = system: SK-MEL-2 melanoma
SK-MEL-28 melanoma = system: SK-MEL-28 melanoma
SK-MEL-5 melanoma = system: SK-MEL-5 melanoma
SK-OV-3 ovarian = system: SK-OV-3 ovarian
SN12C renal = system: SN12C renal
SNB-19 CNS = system: SNB-19 CNS
SNB-75 CNS = system: SNB-75 CNS
SR leukemia = system: SR leukemia
SW-620 colon = system: SW-620 colon
T-47D breast = system: T-47D breast
TK-10 renal = system: TK-10 renal
U251 CNS = system: U251 CNS
UACC-257 melanoma = system: UACC-257 melanoma
UACC-62 melanoma = system: UACC-62 melanoma
UO-31 renal = system: UO-31 renal

O=C(NNC(=O)c1ccccc1S)c1ccccc1S
25 µM and 15.4 µM: TGI (SR leukemia)
24.6 µM and 17.6 µM: TGI (HL-60(TB) leukemia)
inactive: GI50 (786-0 renal) 13.4 µM | GI50 (A549 NSCLC) 28.7 µM | GI50 (BT-549 breast) 16.7 µM | GI50 (CAKI-1 renal) 5.51 µM | GI50 (CCRF-CEM leukemia) 1850 nM | GI50 (COLO 205 colon) 28.2 µM | GI50 (EKVX NSCLC) 52.2 µM | GI50 (HCT-116 colon) 8.17 µM | GI50 (HCT-15 colon) 7.97 µM | GI50 (HL-60(TB) leukemia) 3.12 µM | GI50 (HOP-62 NSCLC) 21 µM | GI50 (HOP-92 NSCLC) > 100 µM | GI50 (HT29 colon) 31.3 µM | GI50 (IGROV1 ovarian) 16.9 µM | GI50 (K-562 leukemia) 5.4 µM | GI50 (KM12 colon) 37.3 µM | GI50 (M14 melanoma) 23.3 µM | GI50 (MALME-3M melanoma) 54.3 µM | GI50 (MDA-MB-435) 33.2 µM | GI50 (MDA-N) 22.3 µM | GI50 (MOLT-4 leukemia) 3.58 µM | GI50 (NCI-H226 lung) 25.2 µM | GI50 (NCI-H23 lung) 20.8 µM | GI50 (NCI-H522 lung) 5.34 µM | GI50 (NCI/ADR-RES ovarian) 25.9 µM | GI50 (OVCAR-3 ovarian) 16.1 µM | GI50 (OVCAR-4 ovarian) 28 µM | GI50 (OVCAR-5 ovarian) 68.2 µM | GI50 (RPMI-8226 leukemia) 9.24 µM | GI50 (RXF 393 renal) 8.74 µM | GI50 (SF-268 CNS) 16.6 µM | GI50 (SF-295 CNS) 21.8 µM | GI50 (SF-539 CNS) 37.1 µM | GI50 (SK-MEL-28 melanoma) 35.3 µM | GI50 (SK-MEL-5 melanoma) 34.2 µM | GI50 (SK-OV-3 ovarian) 64.8 µM | GI50 (SN12C renal) 25.9 µM | GI50 (SNB-19 CNS) 59.9 µM | GI50 (SNB-75 CNS) 27.9 µM | GI50 (SR leukemia) 3.37 µM | GI50 (SW-620 colon) 8.09 µM | GI50 (T-47D breast) 6.88 µM | GI50 (TK-10 renal) > 100 µM | GI50 (U251 CNS) 31.8 µM | GI50 (UACC-257 melanoma) 2570 nM | GI50 (UACC-62 melanoma) 27.5 µM
25 µM and 82.1 µM: TGI (HCT-116 colon)
25 µM and 12.2 µM: TGI (CCRF-CEM leukemia)
active: GI50 (NCI-H460 lung) 123 nM
25 µM and > 100 µM: TGI (786-0 renal) | TGI (A549 NSCLC) | TGI (ACHN renal) | TGI (BT-549 breast) | TGI (CAKI-1 renal) | TGI (COLO 205 colon) | TGI (DU-145 prostate) | TGI (EKVX NSCLC) | TGI (HCT-15 colon) | TGI (HT29 colon) | TGI (K-562 leukemia) | TGI (KM12 colon) | TGI (LOX IMVI melanoma) | TGI (M14 melanoma) | TGI (MALME-3M melanoma) | TGI (MDA-MB-435) | TGI (MDA-N) | TGI (MOLT-4 leukemia) | TGI (NCI-H226 lung) | TGI (NCI-H23 lung) | TGI (NCI-H460 lung) | TGI (NCI/ADR-RES ovarian) | TGI (OVCAR-4 ovarian) | TGI (OVCAR-5 ovarian) | TGI (OVCAR-8 ovarian) | TGI (RPMI-8226 leukemia) | TGI (RXF 393 renal) | TGI (SF-268 CNS) | TGI (SF-295 CNS) | TGI (SF-539 CNS) | TGI (SK-MEL-5 melanoma) | TGI (SN12C renal) | TGI (SNB-19 CNS) | TGI (SNB-75 CNS) | TGI (SW-620 colon) | TGI (T-47D breast) | TGI (U251 CNS) | TGI (UACC-257 melanoma) | TGI (UACC-62 melanoma)
25 µM and 65.4 µM: TGI (OVCAR-3 ovarian)
22.5 µM and > 100 µM: TGI (IGROV1 ovarian)
25 µM and 68.3 µM: TGI (HOP-62 NSCLC)
> 100 µM: TGI (A498 renal) | TGI (HCC-2998 colon) | TGI (HOP-92 NSCLC) | TGI (HS 578T breast) | TGI (MCF7 breast) | TGI (MDA-MB-231 breast) | TGI (PC-3 prostate) | TGI (SK-MEL-2 melanoma) | TGI (SK-MEL-28 melanoma) | TGI (SK-OV-3 ovarian) | TGI (TK-10 renal) | TGI (UO-31 renal)

COc1cc2c(cc1OCCCC(=O)Nc1cc(C(=O)Nc3cc(C(=O)Nc4cc(C(=O)NCCCN(C)C)n(C)n4)n(C)c3)n(C)c1)N=CC1CCCN1C2=O (centres undefined)
64.1 µM: TGI (KM12 colon)
49.9 µM: TGI (SK-MEL-2 melanoma)
63.1 µM: TGI (SF-268 CNS)
78.1 µM: TGI (CAKI-1 renal)
51.3 µM: TGI (NCI-H226 lung) | TGI (SN12C renal)
25.4 µM: TGI (SR leukemia)
51.1 µM: TGI (HOP-92 NSCLC)
48.5 µM: TGI (SF-539 CNS)
32.4 µM: TGI (MOLT-4 leukemia)
> 100 µM: TGI (786-0 renal) | TGI (A549 NSCLC) | TGI (CCRF-CEM leukemia) | TGI (COLO 205 colon) | TGI (DU-145 prostate) | TGI (EKVX NSCLC) | TGI (HCT-116 colon) | TGI (HCT-15 colon) | TGI (HOP-62 NSCLC) | TGI (MDA-MB-231 breast) | TGI (NCI-H460 lung) | TGI (NCI/ADR-RES ovarian) | TGI (OVCAR-3 ovarian) | TGI (OVCAR-5 ovarian) | TGI (OVCAR-8 ovarian) | TGI (SF-295 CNS) | TGI (SK-OV-3 ovarian) | TGI (T-47D breast)
44 µM: TGI (UACC-257 melanoma)
49.1 µM: TGI (IGROV1 ovarian)
57.7 µM: TGI (A498 renal)
44.5 µM: TGI (HT29 colon)
64.5 µM: TGI (MDA-MB-435)
39.9 µM: TGI (UACC-62 melanoma)
33.9 µM: TGI (SK-MEL-28 melanoma)
48 µM: TGI (HS 578T breast)
16.3 µM: TGI (HL-60(TB) leukemia)
42.3 µM: TGI (RXF 393 renal)
48.6 µM: TGI (SW-620 colon)
38.6 µM: TGI (OVCAR-4 ovarian)
39.8 µM: TGI (K-562 leukemia)
55.5 µM: TGI (LOX IMVI melanoma)
48.9 µM: TGI (PC-3 prostate)
41.4 µM: TGI (MDA-N)
82.8 µM: TGI (RPMI-8226 leukemia)
4.77 µM: TGI (NCI-H522 lung)
72.2 µM: TGI (M14 melanoma)
44.7 µM: TGI (BT-549 breast) | TGI (SNB-75 CNS)
58.7 µM: TGI (MCF7 breast)
40 µM: TGI (ACHN renal)
36.6 µM: TGI (MALME-3M melanoma)
39.4 µM: TGI (TK-10 renal)
49.7 µM: TGI (SNB-19 CNS)
78.5 µM: TGI (NCI-H23 lung)
76.5 µM: TGI (HCC-2998 colon)
53 µM: TGI (UO-31 renal)
42.6 µM: TGI (SK-MEL-5 melanoma)
59.8 µM: TGI (U251 CNS)
